# Measurements taken from patent US8158622B2, “Pyrrolopyridine-2-carboxylic acid amide inhibitors of glycogen phosphorylase” (Prosidion Limited, priority 2003, dated 2012).
# Molecular target: T1, Rabbit muscle glycogen phosphorylase a (Oryctolagus cuniculus, UniProt P00489)
# T1 construct: purchased Sigma P1261
# T1 sequence (P00489 2-843 limits assumed): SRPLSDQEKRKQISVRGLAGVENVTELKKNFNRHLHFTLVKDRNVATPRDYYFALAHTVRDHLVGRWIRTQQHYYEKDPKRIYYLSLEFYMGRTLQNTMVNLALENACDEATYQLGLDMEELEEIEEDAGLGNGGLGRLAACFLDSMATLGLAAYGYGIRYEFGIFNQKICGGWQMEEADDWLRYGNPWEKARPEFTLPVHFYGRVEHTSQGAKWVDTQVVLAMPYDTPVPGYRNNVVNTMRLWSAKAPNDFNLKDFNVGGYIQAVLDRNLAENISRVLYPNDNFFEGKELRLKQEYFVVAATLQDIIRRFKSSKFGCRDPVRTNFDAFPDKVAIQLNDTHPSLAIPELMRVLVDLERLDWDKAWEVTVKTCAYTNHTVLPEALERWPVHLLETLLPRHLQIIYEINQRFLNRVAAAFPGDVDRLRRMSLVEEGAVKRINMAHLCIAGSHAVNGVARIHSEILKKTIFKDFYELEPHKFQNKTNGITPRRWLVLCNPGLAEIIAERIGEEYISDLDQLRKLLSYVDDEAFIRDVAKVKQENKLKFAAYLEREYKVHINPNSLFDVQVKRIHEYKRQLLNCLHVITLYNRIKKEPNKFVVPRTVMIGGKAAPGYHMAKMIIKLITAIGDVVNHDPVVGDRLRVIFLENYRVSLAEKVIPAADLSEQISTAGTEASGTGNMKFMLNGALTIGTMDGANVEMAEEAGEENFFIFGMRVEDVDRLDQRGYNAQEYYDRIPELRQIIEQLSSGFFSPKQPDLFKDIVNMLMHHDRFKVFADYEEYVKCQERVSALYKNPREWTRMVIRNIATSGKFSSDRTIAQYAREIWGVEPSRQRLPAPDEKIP
# Test: Glycogen phosphorylase assay in vitro (reverse direction, malachite green phosphate detection)
# Type: biochemical
# Details: 50 mM Hepes pH 7.2, 7.5 mM glucose, 0.5 mM glucose-1-phosphate, 1 mg/mL glycogen, 30° C. for 30 min
# Description: α-D-Glucose-1-phosphate (disodium salt), Glycogen, D-Glucose, Malachite Green Hydrochloride, Ammonium Molybdate tetrahydrate, BSA, HEPES and rabbit muscle phosphorylase α (P1261) were purchased from Sigma. All other reagents were analytical grade.
# Glycogen Phosphorylase Assay In Vitro:
# An assay for glycogen phosphorylase activity in the reverse direction was developed based on the method described by Engers et al., Can. J. Biochem., 1970, 48, 746-754]. Rabbit muscle glycogen phosphorylase a (Sigma) was reconstituted at a stock concentration of 100 μg/mL in 25 mM Tris/HCl. […] in a 96-well plate in a final volume of 100 μL containing 50 mM Hepes pH 7.2, 7.5 mM glucose, 0.5 mM glucose-1-phosphate and 1 mg/mL glycogen. After incubation at 30° C. for 30 min, the inorganic phosphate released from glucose-1-phosphate was measured by the addition of 150 μL of malachite green/molybdate solution prepared as follows: 5 mL of 4.2% ammonium molybdate in 4N HCl, 15 mL of 0.045% malachite green, 50 μL of Tween 20. Following a 30 min incubation at rt, the absorbance was measured at 620 nm. For IC50 determination, 10 μL of a serial dilution of compound (100 μM to 0.004 μM) in DMSO was added to each reaction in duplicate with the equivalent concentration of DMSO added to the control uninhibited reaction. Dose response curves were then obtained by plotting % inhibition versus log10 compound concentration. IC50 is defined as the concentration of compound achieving 50% inhibition under the assay conditions described.
row,SMILES,IC50
1,"O=C(NCCNc1ccccc1)c1cc2ccncc2[nH]1 [Example 21, 1H-Pyrrolo[2,3-c]pyridine-2-carboxylic acid (2-phenylaminoethyl)amide]",≥ 100 µM
2,"COc1ccc2[nH]c(C(=O)N[C@@H](Cc3ccccc3)C(=O)N(C)C)cc2n1 [Example 23, 5-Methoxy-1H-pyrrolo[3,2-b]pyridine-2-carboxylic acid (1-dimethylcarbamoyl-2-(S)-phenylethyl)amide]",≥ 100 µM
3,"CN(C)C(=O)[C@H](Cc1ccccc1)NC(=O)c1cc2ncccc2[nH]1 [Example 24, 1H-Pyrrolo[3,2-b]pyridine-2-carboxylic acid (1-dimethylcarbamoyl-2-(S)-phenylethyl)amide]",≥ 100 µM
4,"O=C(NCCOc1ccccc1)c1cc2ncccc2[nH]1 [Example 25, 1H-Pyrrolo[3,2-b]pyridine-2-carboxylic acid (2-phenoxyethyl)amide]",≥ 100 µM
5,"O=C(NCCNc1ccccc1)c1cc2ncccc2[nH]1 [Example 26, 1H-Pyrrolo[3,2-b]pyridine-2-carboxylic acid (2-phenylaminoethyl)amide]",≥ 100 µM
6,"O=C(NCCN1CCN(Cc2ccccc2)CC1)c1cc2cc(Cl)ncc2[nH]1 [Example 28, 5-Chloro-1H-pyrrolo[2,3-c]pyridine-2-carboxylic acid [2-(4-benzylpiperazin-1-yl)ethyl]amide]",≥ 100 µM
7,"O=C(NCCNCc1ccccc1)c1cc2cc(Cl)ncc2[nH]1 [Example 29, 5-Chloro-1H-pyrrolo[2,3-c]pyridine-2-carboxylic acid (2-benzylaminoethyl)amide]",≥ 100 µM
